Tests used:
rSap 6 = molecular target: T1, rSap 6 (Candida albicans, UniProt Q5AC08); experiment: Proteolytic stability of Hst 5 with rSap 6 (10 KDa cut-off filtrate, LC/MS); type: in vitro ADME; conditions: 2:1 Hst 5: Sap 6, 37 °C, 1 h, C18 column, peaks m/z 760, 608, 507
T1 construct: made in house
Experimental: To further address whether Sap 6 degrades Hst 5, we spun the 2:1 Hst 5: Sap 6 incubation mixture through a Centricon® 10 KDa molecular weight cut-off column that would allow Hst 5 and smaller peptides to pass through; and subjected the eluate to Liquid Chromatography/Mass Spectrometry. […] Analysis of these fragments to determine Sap6-specific cleavage sites within Hst 5 is ongoing.
(§1) Proteolytic stability—For Hst 5 degradation analysis, Hst 5 was incubated with the required concentration of respective proteins for 1 h at 37 °C; and the reaction mixture was spun through a Centricon® 10 KDa cut-off column (Millipore UFC501024, Amicon Ultra-0.5 centrifugal filter unit with Ultracel-10 membrane), diluted in water with 2%TFA (trifluoroacetic acid) to 40 ug/mL of peptide, and analyzed by Liquid Chromatography/Mass Spectrometry utilizing a C18 column and an API3000 triple quadrupole mass spectrometer (Applied Biosystems, Foster City, CA,USA). The mass spectrum of Hst 5 gave a distribution of charge states with the most abundant being the M + 4 at 760 Da.

[1] = system: C. albicans Msb2 domain mutant cells; experiment: Candidacidal assay on HA-tagged Msb2 domain mutant cells; type: cell-based, Candida albicans; conditions: Figure 6
Text: C. albicans strains with HA-tagged Msb2 and its domain mutants were constructed previously. These mutants consisted of versions of Msb2 lacking each of the major functional domains: ED1/2Δ lacking residues 100–900 of the glycosylated extracellular region so that shed Msb2 is truncated with low glycosylation; ED4Δ cells lacking Msb2 residues 900–1250 within the cleavage domain of Msb2 resulting in constitutive shedding of Msb2 due to loss of cell tethering; and TM-CYTΔ cells lacking residues 1250–1409 that comprise the transmembrane and cytoplasmic signaling domain of Msb2 so that Msb2 is cleaved and shed in the absence of signaling. Briefly, Msb2 deletion derivative strains were constructed by a PCR-based approach using the URA-Blaster technique. PCR primers were designed to amplify the 3HA-URA3–3HA cassette in plasmid pCaMPY-3XHA [26], tailed with an additional 80 nucleotides of sequence flanking the open reading frame (ORF) of the region to be disrupted. PCR products were verified by gel electrophoresis. The purified PCR product (10 μg) was transformed into the Δmsb2/MSB2 strain with Frozen-EZ Yeast Transformation II Kit (Zymo Research, CA, USA). Uracil-deficient agar (YNB-URA) media was used for selection of URA positive colonies. PCR-based analysis of transformants was performed with primer pairs internal to the wild-type locus and the URA cassette. Homozygous transformants were reverted to the URA negative phenotype by selection on 5-fluororotic acid (5-FOA). Domain deletion knockouts were verified by immunoblot analysis.
(§2) Candidacidal assays—The susceptibility of C. albicans cells to Hst 5 was measured using microdilution plate assays in triplicate as previously described, with some modifications for experiments involving rSap6 and mucins. Briefly, Hst 5 was incubated with the required concentration of respective proteins for 1 h at 37 °C before performing the candidacidal assay. For heat inactivated control of rSaps, protein was heat inactivated at 120 °C for 10 min before using in the candidacidal assay.

porcine mucin = experiment: Hst 5 degradation analysis with porcine mucin (10 KDa cut-off filtrate, LC/MS); type: in vitro ADME; conditions: 37 °C, 1 h
Experimental: (§3) We next investigated whether the effect of these proteins on Hst 5 activity is related to complexation and Hst 5 sequestration or as a result, instead, of degradation caused by potential contaminating proteases that may be present in these commercial proteins. For this, 40 μM Hst 5 was incubated for 1 h at 37 °C with either 50 or 500 μg/mL porcine mucin or 40 μM albumin, respectively, and spun through a Centricon® 10 KDa molecular weight cut-off column that would allow Hst 5 and smaller peptides to pass through followed by Liquid Chromatography/Mass Spectrometry analysis of the eluate.
as §1

albumin = molecular target: T2, albumin (Bos taurus, UniProt P02769); experiment: Hst 5 degradation analysis with albumin (10 KDa cut-off filtrate, LC/MS); type: in vitro ADME; conditions: 40 μM Hst 5 with 40 μM albumin, 37 °C, 1 h, C18 column
T2 construct: purchased Sigma Aldrich A2153
Experimental: as §3, §1

Candida albicans = experiment: Candidacidal assay (microdilution plate) of Hst 5 after pre-incubation with proteins; type: cell-based; conditions: 37 °C, 1 h
Experimental: as §2

Histatin 5 = molecular target: T3, Histatin 5 (UniProt P15516)
T3 sequence (peptide): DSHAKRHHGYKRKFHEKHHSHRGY

T2 sequence (P02769 25-607): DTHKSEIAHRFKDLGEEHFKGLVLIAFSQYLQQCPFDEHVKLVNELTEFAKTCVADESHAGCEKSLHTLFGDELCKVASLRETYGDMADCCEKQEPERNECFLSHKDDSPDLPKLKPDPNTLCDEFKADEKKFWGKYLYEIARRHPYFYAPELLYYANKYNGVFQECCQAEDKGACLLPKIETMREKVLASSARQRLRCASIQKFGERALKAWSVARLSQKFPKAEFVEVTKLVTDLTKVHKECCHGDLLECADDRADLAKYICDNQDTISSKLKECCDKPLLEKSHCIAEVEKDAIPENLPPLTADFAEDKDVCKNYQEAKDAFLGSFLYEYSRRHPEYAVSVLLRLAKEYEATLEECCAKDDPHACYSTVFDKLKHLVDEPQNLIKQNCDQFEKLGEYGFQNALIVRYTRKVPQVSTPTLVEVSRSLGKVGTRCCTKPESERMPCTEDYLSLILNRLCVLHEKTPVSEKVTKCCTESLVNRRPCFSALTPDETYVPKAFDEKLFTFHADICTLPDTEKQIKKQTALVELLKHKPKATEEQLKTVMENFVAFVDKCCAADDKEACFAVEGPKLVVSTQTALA
T1 sequence (Q5AC08 77-418): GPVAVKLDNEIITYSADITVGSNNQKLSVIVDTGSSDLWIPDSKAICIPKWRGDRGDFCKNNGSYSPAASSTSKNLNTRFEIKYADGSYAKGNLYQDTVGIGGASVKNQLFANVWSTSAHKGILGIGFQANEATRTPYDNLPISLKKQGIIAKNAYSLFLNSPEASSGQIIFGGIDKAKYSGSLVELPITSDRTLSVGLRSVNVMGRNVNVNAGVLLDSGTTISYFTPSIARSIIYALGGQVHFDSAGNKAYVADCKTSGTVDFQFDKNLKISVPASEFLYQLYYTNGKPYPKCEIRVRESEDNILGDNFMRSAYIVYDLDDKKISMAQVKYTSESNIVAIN

## C[C@H](NC(=O)[C@H](Cc1cnc[nH]1)NC(=O)[C@H](CO)NC(=O)[C@@H](N)CC(=O)O)C(=O)N[C@@H](CCCCN)C(=O)N[C@@H](CCCNC(=N)N)C(=O)N[C@@H](Cc1cnc[nH]1)C(=O)N[C@@H](Cc1cnc[nH]1)C(=O)NCC(=O)N[C@@H](Cc1ccc(O)cc1)C(=O)N[C@@H](CCCCN)C(=O)N[C@@H](CCCNC(=N)N)C(=O)N[C@@H](CCCCN)C(=O)N[C@@H](Cc1ccccc1)C(=O)N[C@@H](Cc1cnc[nH]1)C(=O)N[C@@H](CCC(=O)O)C(=O)N[C@@H](CCCCN)C(=O)N[C@@H](Cc1cnc[nH]1)C(=O)N[C@@H](Cc1cnc[nH]1)C(=O)N[C@@H](CO)C(=O)N[C@@H](Cc1cnc[nH]1)C(=O)N[C@@H](CCCNC(=N)N)C(=O)NCC(=O)N[C@@H](Cc1ccc(O)cc1)C(=O)O [Hst 5, Histatin 5]
rSap 6
  intact Hst 5 mass peaks after incubation with protease: completely disappeared
[1]; ED1/2Δ cells (release truncated Msb2 shed domain), p > 0.05
  Hst 5 killing compared with WT: killing similar to WT Msb2-HA cells
[1]; ED4Δ cells (constitutively shed Msb2), p > 0.05
  Hst 5 killing compared with WT: killing similar to WT Msb2-HA cells
[1]; TM-CYTΔ cells (lack transmembrane and cytoplasmic domain of Msb2)
  Hst 5 killing compared with WT: reduced killing
[1]; cells lacking Msb2 (msb2Δ, no shedding), compared to other sMsb2 defective strains
  Hst 5 killing: killing was not significantly reduced
Porcine mucin; 40 μM Hst 5 with 500 μg/mL porcine mucin, M + 4 (760) peak still observed at lower intensity
  intact Hst 5 mass peaks after incubation: almost complete disappearance of m/z peaks at 507 and 608
Porcine mucin; 40 μM Hst 5 with 50 or 500 μg/mL porcine mucin, C18 column
  intact Hst 5 mass peaks after incubation: large dose-dependent decrease in the intensity of all three m/z peaks
albumin
  intact Hst 5 mass peaks after incubation: reduction in the peak intensity of all 3 m/z peaks for intact Hst 5 with no emergence of any significant lower m/z peaks
Candida albicans; Hst 5 30 μM pre-incubated with heat inactivated rSap 6 (120 °C, 10 min)
  effect on Hst 5 candidacidal activity: did not affect Hst 5 activity
Candida albicans; Hst 5 30 μM with porcine gut mucin 5 μg/mL
  effect on Hst 5 candidacidal activity: no effect on Hst 5 activity
Candida albicans; Hst 5 30 μM with porcine gut mucin 50 μg/mL
  effect on Hst 5 candidacidal activity: no effect on Hst 5 activity

## albumin (from UniProt P02769 25-607) (natural protein)
Histatin 5
  candidacidal activity (percent killing of C. albicans) of 30 uM Hst 5 after 1 h at 37 C with equimolar albumin; 70% without added protein: 50 % killing

## purified full-length shed domain of Msb2 (domain or fragment)
Histatin 5
  candidacidal activity (percent killing of C. albicans) of 30 uM Hst 5 after 1 h at 37 C with equimolar sMsb2; 70% without added protein: 38 % killing

B1: fetuin (natural protein)
chain: IPLDPVAGYKEPACDDPDTEQAALAAVDYINKHLPRGYKHTLNQIDSVKVWPRRPTGEVYDIEIDTLETTCHVLDPTPLANCSVRQQTQHAVEGDCDIHVLKQDGQFSVLFTKCDSSPDSAEDVRKLCPDCPLLAPLNDSRVVHAVEVALATFNAESNGSYLQLVEISRAQFVPLPVSVSVEFAVAATDCIAKEVVDPTKCNLLAEKQYGFCKGSVIQKALGGEDVRVTCTLFQTQPVIPQPQPDGAEAEAPSAVPDAAGPTPSAAGPPVASVVVGPSVVAVPLPLHRAHYDLRHTFSGVASVESSSGEAFHVGKTPIVGQPSIPGGPVRLCPGRIRYFKI
modifications: glycosylated
Histatin 5
  candidacidal activity (percent killing of C. albicans) of 30 uM Hst 5 after 1 h at 37 C with equimolar fetuin; 70% without added protein: 50 % killing

Reference: PMC4693163, “Candida albicans Shed Msb2 and Host Mucins Affect the Candidacidal Activity of Salivary Hst 5” (Pathogens, 2015)
